# From PubChem BioAssay AID2060513 (Molecular Pharmacology Branch, DTP, NCI, 2025)
# Where “and” joins values, the source holds several entries; their conditions need not be identical. Equal entries are not always repeated.
# System: 299254-011-R-J1-PDC complex spheroids viability
# Assay: Anticancer human tumor 299254-011-R-J1-PDC patient-derived melanoma cell line growth inhibition [GQUAD]
# Conditions: for viability, T/C: stronger effect = lower value
# Description: DNA G-quadruplex Stabilizer Agents in Combinations in Complex Spheroids
# A high-throughput screen of multi-cell type tumor spheroids was designed to identify active combinations of DNA G-quadruplex stabilizer agents and targeted small molecules. Complex spheroids include a stromal component modeled by human endothelial cells (HUVEC) and fibroblasts modeled by human mesenchymal stem cells (MSCs). The concentration ranges selected for each drug and investigational agent were based upon clinically achievable concentrations if the clinical Cmax of the agent was known.
# Compounds. The drugs and investigational agents: pidnarulex (CX-5461; NSC782164), APTO-253 (NSC789042), BRACO-19 (NSC847499), peposertib (NSC802822), ceralasertib (NSC780249), elimusertib (NSC800525), camonsertib (NSC841442), AZD-1390 (NSC803789), olaparib (NSC753686), talazoparib (NSC767125), ART-558 (NSC835418), sotorasib (NSC818433), MRTX-1133 (NSC836407), SN-38 (NSC673596), topotecan (NSC609699), etoposide (NSC141540), doxorubicin (NSC123127), gemcitabine (NSC613327), 5-fluorouracil (NSC19893), paclitaxel (NSC125973), vemurafenib (NSC761431), panobinostat (NSC761190), R-306465 (JNJ-16241199; NSC773264), adavosertib (NSC754352), TP-3654 (NSC805149), carboplatin (NSC241240), KSQ-4279 (NSC840948), and staurosporine (NSC755774) were obtained from the National Cancer Institute (NCI) Developmental Therapeutics Program Chemical Repository (34). The FDA-approved anticancer drug set is available from the NCI Developmental Therapeutics Program. […] The stock solutions were prepared in dimethyl sulfoxide (DMSO, Sigma-Aldrich, St. Louis, MO, cat. D2650) at 800-fold the tested concentration and stored at -70 degrees C prior to their use. All drugs and investigational agents were tested over a range starting from a high concentration at or near the clinical Cmax and decreasing in half-log increments. If the clinical Cmax for an agent had not been determined, the highest concentration tested was 10 microM.
# 2.3 Cell Culture. All cells were maintained in an incubator at 37 degrees C and 5% CO2 with 95% humidity. The PDC lines were cultured according to standard operating procedures established by the NCI PDMR. All PDCs were thawed and cultured in Matrigel-coated flasks prepared with a working solution of 1X Ham's F-12 nutrient mix, without supplementation (Invitrogen, cat. 11765054), 100 U/mL penicillin-streptomycin (Invitrogen, cat. 15140122), and 2.5% Matrigel (Corning Inc., cat. 354248) for the first three passages. The 857933-349-R-J2-PDC line was cultured in 6C/Colon 1B media, which includes advanced DMEM/F-12 (Thermo Fisher Scientific, cat. 12634028), 10 mM HEPES (Thermo Fisher Scientific, cat. 15630080), 1X GlutaMAX supplement (Thermo Fisher Scientific, cat. 35050061), 0.1 mg/mL primocin (InvivoGen, cat. ant-pm-2), 10% defined fetal bovine serum, heat inactivated (HyClone Laboratories Inc., cat. SH30070.03HI), 50% L-WRN conditioned media (ATCC, cat. CRL-3276), 1.25 mM N-Acetyl-L-cysteine (Sigma-Aldrich, cat. A9165), 10 mM nicotinamide (Sigma-Aldrich, cat. N0636), 1X B-27 supplement (Thermo Fisher Scientific, cat. 17504044), 1X N-2 supplement (Thermo Fisher Scientific, cat. 17502048), 10 microM Y-27632 dihydrochloride (Tocris Bioscience, cat. 1254), and 50 ng/mL human EGF recombinant protein (Thermo Fisher Scientific, cat. PHG0311). The 485176-168-R4-J1-PDC line was cultured in Panc media, which includes all 6C/Colon 1B media components plus 100 ng/mL human FGF-10 (Thermo Fisher Scientific, cat. 100-26), 500 nM SB-431542 (Selleckchem, cat. S1067), and gastrin (Tocris, cat. 3006).
# […]
# 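Also: spheroids exposed to the agents for seven days before readout.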
# 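For viability, T/C in this document: percent viability relative to DMSO vehicle control wells = 100%.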
structure (smiles),measurement,setting,value
Cc1cnc(CNC(=O)c2c(=O)c3ccc(N4CCCN(C)CC4)nc3n3c2sc2ccccc23)cn1,"viability, T/C",compound 0.316 µM,100% [middle of 12 runs]
CC(C)n1c(=O)n(C)c2cnc3cc(F)c(-c4ccc(OCCCN5CCCCC5)nc4)cc3c21 + Cc1cnc(CNC(=O)c2c(=O)c3ccc(N4CCCN(C)CC4)nc3n3c2sc2ccccc23)cn1,IC50,"curve of first compound, second compound 0.0316 µM",> 10000 nM
same,IC50,"curve of first compound, second compound 0.1 µM",7380 nM
same,IC50,"curve of first compound, second compound 0.316 µM",2380 nM
same,IC50,"curve of first compound, second compound 1 µM",4090 nM
same,IC50,"curve of first compound, second compound 3.16 µM",1360 nM
same,IC50,"curve of first compound, second compound 10 µM",< 31.6 nM
same,"viability, T/C","second compound 0.0316 µM, first compound 0.0316 µM",94.4%
same,"viability, T/C","second compound 0.0316 µM, first compound 0.1 µM",79.1%
same,"viability, T/C","second compound 0.0316 µM, first compound 0.316 µM",85.8%
same,"viability, T/C","second compound 0.0316 µM, first compound 1 µM",73%
same,"viability, T/C","second compound 0.0316 µM, first compound 3.16 µM",69.7%
same,"viability, T/C","second compound 0.0316 µM, first compound 10 µM",51%
same,"viability, T/C","second compound 0.1 µM, first compound 0.0316 µM",96.9%
same,"viability, T/C","second compound 0.1 µM, first compound 0.1 µM",96.4%
same,"viability, T/C","second compound 0.1 µM, first compound 0.316 µM",77.3%
same,"viability, T/C","second compound 0.1 µM, first compound 1 µM",87.8%
same,"viability, T/C","second compound 0.1 µM, first compound 3.16 µM",63.1%
same,"viability, T/C","second compound 0.1 µM, first compound 10 µM",44.4%
same,"viability, T/C","second compound 0.316 µM, first compound 0.0316 µM",77.4%
same,"viability, T/C","second compound 0.316 µM, first compound 0.1 µM",87.2%
same,"viability, T/C","second compound 0.316 µM, first compound 0.316 µM",65.2%
same,"viability, T/C","second compound 0.316 µM, first compound 1 µM",55.7%
same,"viability, T/C","second compound 0.316 µM, first compound 3.16 µM",53%
same,"viability, T/C","second compound 0.316 µM, first compound 10 µM",39.5%
same,"viability, T/C","second compound 1 µM, first compound 0.0316 µM",56.4%
same,"viability, T/C","second compound 1 µM, first compound 0.1 µM",56.6%
same,"viability, T/C","second compound 1 µM, first compound 0.316 µM",66.9%
same,"viability, T/C","second compound 1 µM, first compound 1 µM",54.7%
same,"viability, T/C","second compound 1 µM, first compound 3.16 µM",58.1%
same,"viability, T/C","second compound 1 µM, first compound 10 µM",22.4%
same,"viability, T/C","second compound 3.16 µM, first compound 0.0316 µM",55.4%
same,"viability, T/C","second compound 3.16 µM, first compound 0.1 µM",78.3%
same,"viability, T/C","second compound 3.16 µM, first compound 0.316 µM",64%
same,"viability, T/C","second compound 3.16 µM, first compound 1 µM",53.5%
same,"viability, T/C","second compound 3.16 µM, first compound 3.16 µM",35.6%
same,"viability, T/C","second compound 3.16 µM, first compound 10 µM",13.6%
same,"viability, T/C","second compound 10 µM, first compound 0.0316 µM",0.37%
same,"viability, T/C","second compound 10 µM, first compound 0.1 µM",12.4%
same,"viability, T/C","second compound 10 µM, first compound 0.316 µM",12.2%
same,"viability, T/C","second compound 10 µM, first compound 1 µM",3.21%
same,"viability, T/C","second compound 10 µM, first compound 3.16 µM",0.36%
same,"viability, T/C","second compound 10 µM, first compound 10 µM",0.31%
CC(=O)O[C@H]1C(=O)[C@@]2(C)[C@H]([C@H](OC(=O)c3ccccc3)[C@]3(O)C[C@H](OC(=O)[C@H](O)[C@@H](NC(=O)c4ccccc4)c4ccccc4)C(C)=C1C3(C)C)[C@]1(OC(C)=O)CO[C@@H]1C[C@@H]2O,"viability, T/C",compound 0.0316 µM,102% and 92% and 92.4%
same,"viability, T/C",compound 0.1 µM,86.3% and 73.8% and 59%
same,"viability, T/C",compound 0.316 µM,60.6% and 55.7% and 63.9%
same,"viability, T/C",compound 1 µM,32% and 37.8% and 26.7%
same,"viability, T/C",compound 3.16 µM,18.9% and 18.2% and 24.1%
same,"viability, T/C",compound 10 µM,12% and 17.6% and 19.5%
same,IC50,curve of compound,483 nM and 423 nM and 306 nM
C=CC(=O)N1CCN(c2nc(=O)n(-c3c(C)ccnc3C(C)C)c3nc(-c4c(O)cccc4F)c(F)cc23)C(C)C1 (centres undefined),"viability, T/C",compound 0.0316 µM,79% and 95.8% and 88.2%
same,"viability, T/C",compound 0.1 µM,57.3% and 82.7% and 63.5%
same,"viability, T/C",compound 0.316 µM,81% and 65.1% and 59%
same,"viability, T/C",compound 1 µM,59.5% and 59.8% and 59%
same,"viability, T/C",compound 3.16 µM,60.7% and 61% and 69.7%
same,"viability, T/C",compound 10 µM,68.5% and 69.6% and 66.1%
same,IC50,curve of compound,> 10000 nM
Cc1[nH]c2ccccc2c1CCNCc1ccc(/C=C/C(=O)NO)cc1,"viability, T/C",compound 0.000999 µM,99.9% and 96.8% and 89.5%
same,"viability, T/C",compound 0.00316 µM,87.9% and 114% and 103%
same,"viability, T/C",compound 0.00999 µM,94.2% and 94.3% and 96%
same,"viability, T/C",compound 0.0316 µM,96.9% and 88.8% and 85.4%
same,"viability, T/C",compound 0.0999 µM,60.7% and 72.7% and 67.3%
same,"viability, T/C",compound 0.316 µM,19.8% and 19.1% and 16.6%
same,IC50,curve of compound,135 nM and 159 nM and 147 nM
